# Where a name gives a salt, the structure may show the parent alone.
# Key:
# Assay in all cases: Cell viability drug screen, 12-point dose-response AUC
# Format in all cases: cell-based, human
# AGS = AGS cells (non-SEM subtype); 72 hours
# Description: (§1) An FDA-approved small-molecule pharmacological compound (#L1300) and an anticancer compound for research (#L2000) were purchased from Selecckchem and a 10 mM solution was prepared in DMSO. A total of 1,345 compounds were tested the cell viability of the seven EMT gastric cancer cell lines.
# (§2) Cells cultured for cell-based drug assay were inoculated into a 96-well white optical plate (Corning) at 5×10^3 cells per well. After 24 hours after inoculation, a 2.5 MJT (primary screen) or a half-log 12-serial diluent (secondary screen) of the pharmacological compound contained in DMSO is added to the cells with a robot using a BioMek FXp liquid processor (Beckman) to add to the cells at 50 mM. The final drug concentration in the 5 ns range and the DMSO specification control (0.5%) were calculated. The cells were then further incubated at 37° C. in a 5% CO2 incubator for 72 hours prior to measuring cell viability using the extra-GLO assay kit (Promega). The luminescent properties were measured after 15 min incubation at room temperature using a plate stacker equipped with a plate stacker. The normalized viability for the DMSO-based control was measured to generate a cell line-specific 12-point dose-response curve for each pharmacological compound, and then the area under the curve (AUC) was calculated using a trapezoidal method. […] The results of the repeated experiments were averaged to generate AUC values for each cell line for each compound.
# Hs746T = Hs746T cells (SEM subtype); 72 hours
# Description: as §1, §2
# KATO3 = KATO3 cells; 72 hours
# Description: as §1, §2
# MKN1 = MKN1 cells; 72 hours
# Description: as §1, §2
# MKN28 = MKN28 cells; 72 hours
# Description: as §1, §2
# MKN45 = MKN45 cells (non-SEM subtype); 72 hours
# Description: as §1, §2
# MKN74 = MKN74 cells; 72 hours
# Description: as §1, §2
# NCC19 = NCC19 cells; 72 hours
# Description: as §1, §2
# NCC20 = NCC20 cells; 72 hours
# Description: as §1, §2
# NCC24 = NCC24 cells; 72 hours
# Description: as §1, §2
# NCC59 = NCC59 cells; 72 hours
# Description: as §1, §2
# NCI_N87 = NCI_N87 cells; 72 hours
# Description: as §1, §2
# OCUM1 = OCUM1 cells; 72 hours
# Description: as §1, §2
# SK4 = SK4 cells (SEM subtype); 72 hours
# Description: as §1, §2
# SNU16 = SNU16 cells; 72 hours
# Description: as §1, §2
# SNU1750 = SNU1750 cells (SEM subtype); 72 hours
# Description: as §1, §2
# SNU1967 = SNU1967 cells; 72 hours
# Description: as §1, §2
# SNU1 = SNU1 cells; 72 hours
# Description: as §1, §2
# SNU216 = SNU216 cells (non-SEM subtype); 72 hours
# Description: as §1, §2
# SNU484 = SNU484 cells (SEM subtype); 72 hours
# Description: as §1, §2
# SNU601 = SNU601 cells; 72 hours
# Description: as §1, §2
# SNU620 = SNU620 cells; 72 hours
# Description: as §1, §2
# SNU638 = SNU638 cells; 72 hours
# Description: as §1, §2
# SNU668 = SNU668 cells (SEM subtype); 72 hours
# Description: as §1, §2
# SNU719 = SNU719 cells; 72 hours
# Description: as §1, §2
# YCC11 = YCC11 cells (SEM subtype); 72 hours
# Description: as §1, §2
# YCC2 = YCC2 cells; 72 hours
# Description: as §1, §2
# YCC3 = YCC3 cells; 72 hours
# Description: as §1, §2
# FU97 = tested on: FU97; set-up: Average Area Under the Viability Curve (AUC), AUC norm value: scale not given here; settings: FU97 cells; 72 hours
# Description: Cells cultured for cell-based drug assay were inoculated into a 96-well white optical plate (Corning) at 5×10^3 cells per well. After 24 hours after inoculation, a 2.5 MJT (primary screen) or a half-log 12-serial diluent (secondary screen) of the pharmacological compound contained in DMSO is added to the cells with a robot using a BioMek FXp liquid processor (Beckman) to add to the cells at 50 mM. The final drug concentration in the 5 ns range and the DMSO specification control (0.5%) were calculated. The cells were then further incubated at 37° C. in a 5% CO2 incubator for 72 hours prior to measuring cell viability using the extra-GLO assay kit (Promega). The luminescent properties were measured after 15 min incubation at room temperature using a plate stacker equipped with a plate stacker. The normalized viability for the DMSO-based control was measured to generate a cell line-specific 12-point dose-response curve for each pharmacological compound, and then the area under the curve (AUC) was calculated using a trapezoidal method.
SMILES,"Average Area Under the Viability Curve (AUC), AUC norm value (AGS)","Average Area Under the Viability Curve (AUC), AUC norm value (Hs746T)","Average Area Under the Viability Curve (AUC), AUC norm value (KATO3)","Average Area Under the Viability Curve (AUC), AUC norm value (MKN1)","Average Area Under the Viability Curve (AUC), AUC norm value (MKN28)","Average Area Under the Viability Curve (AUC), AUC norm value (MKN45)","Average Area Under the Viability Curve (AUC), AUC norm value (MKN74)","Average Area Under the Viability Curve (AUC), AUC norm value (NCC19)","Average Area Under the Viability Curve (AUC), AUC norm value (NCC20)","Average Area Under the Viability Curve (AUC), AUC norm value (NCC24)","Average Area Under the Viability Curve (AUC), AUC norm value (NCC59)","Average Area Under the Viability Curve (AUC), AUC norm value (NCI_N87)","Average Area Under the Viability Curve (AUC), AUC norm value (OCUM1)","Average Area Under the Viability Curve (AUC), AUC norm value (SK4)","Average Area Under the Viability Curve (AUC), AUC norm value (SNU16)","Average Area Under the Viability Curve (AUC), AUC norm value (SNU1750)","Average Area Under the Viability Curve (AUC), AUC norm value (SNU1967)","Average Area Under the Viability Curve (AUC), AUC norm value (SNU1)","Average Area Under the Viability Curve (AUC), AUC norm value (SNU216)","Average Area Under the Viability Curve (AUC), AUC norm value (SNU484)",also measured
"CC(C)[C@H](C(=O)Nc1ccc(C(=O)NO)cc1)c1ccccc1 [AR-42 (HDAC-42), AR-42]",−1.186,0.3259,0.7324,0.9532,0.07777,1.962,0.1789,1.026,0.06736,−0.6217,2.102,−0.1344,−0.3936,−0.3617,−1.427,−1.401,−0.9137,−0.3147,0,0.127,"Average Area Under the Viability Curve (AUC), AUC norm value (SNU601): 1.874; Average Area Under the Viability Curve (AUC), AUC norm value (SNU620): −1.197; Average Area Under the Viability Curve (AUC), AUC norm value (SNU638): −0.7804; Average Area Under the Viability Curve (AUC), AUC norm value (SNU668): 0.2515; Average Area Under the Viability Curve (AUC), AUC norm value (SNU719): 2.169; Average Area Under the Viability Curve (AUC), AUC norm value (YCC11): −0.3298; Average Area Under the Viability Curve (AUC), AUC norm value (YCC2): −0.00569; Average Area Under the Viability Curve (AUC), AUC norm value (YCC3): 0.6875; Average Area Under the Viability Curve (AUC), AUC norm value (FU97): −1.358"
NC(=O)Nc1cc(-c2cccc(F)c2)sc1C(=O)N[C@H]1CCCNC1 [AZD7762],−0.4403,1.376,2.891,−0.01906,−0.3131,−0.3384,−0.4773,2.796,−0.4167,1.107,2.107,0.8405,0.511,−0.9696,−1.119,−0.9031,−0.3626,−0.2026,0.7004,0,"Average Area Under the Viability Curve (AUC), AUC norm value (SNU601): −0.957; Average Area Under the Viability Curve (AUC), AUC norm value (SNU620): 0.2258; Average Area Under the Viability Curve (AUC), AUC norm value (SNU638): 1.404; Average Area Under the Viability Curve (AUC), AUC norm value (SNU668): 1.537; Average Area Under the Viability Curve (AUC), AUC norm value (SNU719): 3.771; Average Area Under the Viability Curve (AUC), AUC norm value (YCC11): −0.9757; Average Area Under the Viability Curve (AUC), AUC norm value (YCC2): 0.451; Average Area Under the Viability Curve (AUC), AUC norm value (YCC3): 1.638; Average Area Under the Viability Curve (AUC), AUC norm value (FU97): −0.7616"
CCCCC(CC)CNC(=N)NC(=N)NCCCCCCNC(=N)NC(=N)NCC(CC)CCCC (stereo not drawn) [Alexidine HCl],−0.444,−0.2597,0.541,0.8687,0,0.04553,−0.3433,1.132,0.6963,−0.4745,1.334,2.531,−0.04134,−0.9023,−1.849,−0.6331,0.1828,0.7061,0.03777,−1.212,"Average Area Under the Viability Curve (AUC), AUC norm value (SNU601): 1.898; Average Area Under the Viability Curve (AUC), AUC norm value (SNU620): 0.0423; Average Area Under the Viability Curve (AUC), AUC norm value (SNU638): −0.612; Average Area Under the Viability Curve (AUC), AUC norm value (SNU668): −0.1375; Average Area Under the Viability Curve (AUC), AUC norm value (SNU719): 1.2; Average Area Under the Viability Curve (AUC), AUC norm value (YCC11): −1.347; Average Area Under the Viability Curve (AUC), AUC norm value (YCC2): −0.00823; Average Area Under the Viability Curve (AUC), AUC norm value (YCC3): 0.8273; Average Area Under the Viability Curve (AUC), AUC norm value (FU97): −0.9535"

# From patent US20250129430A1, “HIGH ATP-AFFINITY PROTEIN AS THERAPEUTIC TARGET FOR INTRACTABLE CANCER MOLECULAR SUBTYPES AND INHIBITOR THEREOF” (VeraVerse Co., Ltd., priority 2021, published 2025)
